This assay in a line: Olaparib sustained in cultured TNBC cells, LC-MS/MS (half-life). The format is in vitro ADME, human. The settings on record: TNBC cells (PDC No. 3 and 9) overexpressing FBI-1. As to the method:
TNBC cells transfected with plasmids were used for the pharmacokinetic experiments to examine the amount of olaparib sustained in the cells. For the cell-based experiments, cells were treated with 1 μmol/L concentration of olaparib for 12 h[33]. Then, cells were harvested at indicated time-points. For the animal experiments, TNBC cells were injected into the subcutaneous position to form subcutaneous tumor tissues. After 2–3 weeks’ growth, when the tumor volumes reached 1500–2000 mm^3, the solution of olaparib was injected into the subcutaneous tumors. Then, the tumor tissues were harvested at indicated times[34],[35]. The olaparib in cells or tumor tissues was extracted by acetonitrile (ACN), and the amount of olaparib sustained in cells or tumor tissues at each time point was determined by liquid chromatography–mass spectrometry/mass spectrometry (LC-MS/MS), following the methods established by Krens et al.[36]. The sustaining rates of olaparib were calculated as (the amount of olaparib at each time)/(the amount of olaparib at 0-time) × 100%. The sustaining curves or the half-time life (t1/2) of olaparib was obtained by the sustained rates of olaparib.

As to `CC(=O)N1CCN(c2ccc(OCC3COC(Cn4ccnc4)(c4ccc(Cl)cc4Cl)O3)cc2)CC1` (stereo not shown) [ketoconazole], the “effect of ketoconazole on FBI-1-accelerated elimination or clearance of olaparib” value is listed as “almost blocked the effect of FBI-1 on olaparib in TNBC cells”.

The record behind these values is paper PMC7554048, “FBI-1 enhanced the resistance of triple-negative breast cancer cells to chemotherapeutic agents via the miR-30c/PXR axis” (Cell Death & Disease, 2020).
